Reference: patent publication US20240368230A1, “CELL-PENETRATING PEPTIDES COMPRISING MULTIPLE 5-MER ALPHA-HELIX FRAGMENTS AND USES THEREOF” (ArtProBio Co., Ltd., priority 2023, published 2024)
“Also recorded” adds a separate entry of the source. Where two headings read alike, the source gives them in different places. Where a SMILES comes first, the peptide text is derived from it.

Columns and labels:
[1] = tested on: HeLa cells; experiment: Flow cytometry cellular uptake efficiency, HeLa; assay type: cell-based
Protocol: (§1) After washing with PBS, the cells were treated with the fluorescence-labeled peptide (sample) for 4 hours. Then, after washing twice with PBS, the cells were incubated with trypsin (1 mg/mL) for 15 minutes and the peptide bound to the cell surface was removed. The cells were centrifuged at 1,200 rpm for 5 minutes, washed twice with PBS and then suspended in a PBS buffer containing 10% non-enzymatic cell dissociation solution. The fluorescence intensity of the internalized peptide was measured using a BD LSR II flow cytometer (BD Biosciences, USA).
(§2) The cell-penetrating peptides (CPP10, CPP11 and Tat) were labeled with FAM (5 (6)-carboxyfluorescein) at the N-terminal. MFI stands for mean fluorescence intensity. Untreated cells were used as control groups (cell only). The cellular uptake efficiency refers to the degree of penetration into cells.
Flow cytometry was performed after treating Hela cells with the cell-penetrating peptide prepared in Example 11 (CPP11) of different concentrations (4 μM, 30 μM, 60 μM, 90 μM, 120 μM, 270 μM and 500 μM).

[2] = tested on: HCT116 cells; experiment: Flow cytometry cellular uptake efficiency, HCT116; assay type: cell-based; details: HCT116, 30 μM, FAM-labeled
Protocol: as §1, §2

[3] = tested on: 293T cells; experiment: Flow cytometry cellular uptake efficiency, 293T; assay type: cell-based; details: 30 μM, FAM-labeled
Protocol: as §1, §2

[4] = tested on: BALB/c nude mice; experiment: In-vivo fluorescence imaging (IVIS) of living mice, targeting
Protocol: All animal experimental procedures including sample administration and euthanasia were performed in accordance with the strict guidelines of the Yonsei University Health System Institutional Animal Care and Use Committee. Female 7-week BALB/c nude mice were purchased from Orient Bio Company (Korea). Fluorescence-labeled peptide (sample) (10 mg/kg) was injected via the lateral tail vein of the mice. Fluorescence images were acquired at different times (0, 4, 8 and 12 hours) using an in-vivo imaging system (IVIS; PerkinElmer, USA) and the images were analyzed with the Living Image software (PerkinElmer).
Female 7-week-old BALB/c nude mice were injected IV (intravenously) with the cell-penetrating peptide prepared in Example 10 (CPP10) at 10 mg/kg or 1 mg/kg via the lateral tail vein and imaged using IVIS (in-vivo imaging system) (PerkinElmer, USA) 4 hours later. The images were analyzed with the Living Image software (PerkinElmer). The mice were analyzed from the top, bottom (belly) and side positions (FIG. 44A). Then, after administering the same volume of the cell-penetrating peptide prepared in Example 10 (CPP10) at 10 mg/kg via IV (intravenous) or IP (intraperitoneal) injection, the mice were imaged 4 hours later (FIG. 44B).
Next, female 7-week-old BALB/c nude mice were injected IV (intravenously) with the cell-penetrating peptide of Example 10 (CPP10), the cell-penetrating peptide of Example 11 (CPP11) or the cell-penetrating peptide of Example 14 (CPP11d) at 10 mg/kg via the lateral tail vein, and they were imaged 30 minutes and 6 hours later using IVIS (in-vivo imaging system) (PerkinElmer, USA). The images were analyzed with the Living Image software (PerkinElmer) (FIG. 44C). In FIGS. 44A and 44B, the cell-penetrating peptides were labeled with TAMRA (5 (6)-carboxytetramethylrhodamine). In FIG. 44C, the cell-penetrating peptides were labeled with FAM.
The images were analyzed with the Living Image software (PerkinElmer) (FIGS. 50 and 51).
The cell-penetrating peptide prepared in Example 11 (CPP11) was also administered at the same concentration and then analyzed by IVIS 1 hour later (FIG. 51). The cell-penetrating peptide was used after labeling with FAM.
4 hours later, the mice were imaged using IVIS (in-vivo imaging system) (PerkinElmer, USA) and the images were analyzed with the Living Image software (PerkinElmer) (FIG. 53).
The cell-penetrating peptide prepared in Example 11 (CPP11) was also administered at the same concentration and then analyzed by IVIS 1 hour later (FIG. 53). The cell-penetrating peptide was used after labeling with FAM.
Female 7-week-old BALB/c nude mice were injected IV (intravenously) with 200 μL of the cell-penetrating peptide of Example 11 (CPP11) or the existing cell-penetrating peptides (Rev ARM, Tat, penetratin and R8) at 5 mg/kg via the lateral tail vein. 4 hours later, the mice were imaged using IVIS (in-vivo imaging system) (PerkinElmer, USA) and the images were analyzed with the Living Image software (PerkinElmer) (FIGS. 54 and 55). The cell-penetrating peptides were used after labeling with FAM.

[5] = tested on: HeLa cells; experiment: Cytotoxicity analysis with WST-8 reagent; details: 24 hours, various concentrations
Protocol: (§3) Cytotoxicity was analyzed using the WST-8 (5-(2,4-disulfophenyl)-3-(2-methoxy-4-nitrophenyl)-2-(4-nitrophenyl)-2H-tetrazolium, water-soluble tetrazolium). First, HeLa cells were inoculated onto a 96-well plate (5,000 cells/well) and cultured for 24 hours in a DMEM medium containing 10% FBS. After washing with PBS, the peptide (sample) of various concentrations was added to Opti-MEM. 24 hours later, the WST-8 reagent was added and incubation was conducted for 1 hour. Then, WST-8 formazan was quantified using a Victor X5 multilabel plate reader (Perkin Elmer, USA).

[6] = CD spectroscopy of cell-penetrating peptides (helicity); details: for secondary structure / helix stabilization by CD: 10 mM potassium phosphate, pH 7.4, 20° C.
Protocol: The concentration of peptides/proteins was 5-20 μM in general. Spectra were obtained using a Jasco J-1500 CD spectrometer (JASCO, Japan) or a Chirascan CD spectrometer (Applied Photophysics, UK). Scanning was carried out using a cuvette with a path length of 1 mm. MRE (mean residue ellipticity) was calculated per amino acid residue.
The cell-penetrating peptides (CPP1 TO 13 and CPP11d) were dissolved respectively in 10 mM potassium phosphate. The analysis was performed under the condition of pH 7.4 and 20° C.

[7] = CD equilibrium thermal unfolding; assay type: physicochemical; details: CD at 4-84° C., two-state coil-helix transition
Protocol: For the cell-penetrating peptide prepared in Example 11 (CPP11), CD spectra were measured under various temperature conditions (4° C., 20° C., 36° C., 52° C., 68° C. and 84° C.) to analyze thermal stability through equilibrium thermal unfolding.

[8] = tested on: HeLa cells; experiment: Cellular localization by CLSM; assay type: cell-based; details: 10 μM FAM-labeled, 2 hours, DAPI
Protocol: A DMEM medium containing 10% FBS and an 8-well Lab-Tek II chamber slide (Thermo Fisher Scientific, USA) were prepared. […] […] The cultured cells were washed 5 times with PBS. The living cells were visualized using an LSM 880 confocal microscope (Carl Zeiss, Germany).
The cell-penetrating peptides were labeled with FAM.

[9] = tested on: BALB/c nude mice; experiment: IVIS imaging of extracted organs, head and cochlea after IV injection; assay type: in vivo
Protocol: After extracting major organs (ear, brain, heart, lung, liver, spleen and kidney) from the euthanized experimental animals, the tissues were imaged using IVIS (in-vivo imaging system) (PerkinElmer, USA) and the images were analyzed with the Living Image software (PerkinElmer).

[10] = tested on: HeLa cells
Protocol: as §3

[11] = tested on: IIB RNA; experiment: UV melting analysis of IIB RNA and cRev-IIB complex; assay type: physicochemical, HIV-1; details: 260 nm; cRev/IIB ratio 1; IIB RNA only as control
Protocol: UV melting experiments for free RNA (2 μM) and a protein-RNA complex (1:1 molar ratio) were conducted using an Agilent 8453 diode array UV-Vis spectrophotometer equipped with a Peltier temperature controller. Spectra were measured at 260 nm using a cuvette with a path length of 1 cm under the heating rate condition of 2° C./min. The measurement was repeated 3 times and the average was taken. Prior to the measurement, the RNA sample was heated at 90° C. for 2 minutes and then annealed on ice. The melting temperature (Tm) was calculated with the Origin software (OriginLab, USA) using a two-state or multi-state model.
A complex (cRev-IIB complex) was prepared by mixing the cRev prepared in Preparation Example 2 with IIB RNA and UV melting experiment was performed. The cRev/IIB ratio was 1. For the control group (IIB RNA only), only IIB RNA was used without cRev.

[12] = FAM-labeled, IV 10 mg/kg, 30 minutes and 6 hours
[13] = extracted organs, IV 10 mg/kg, 4 hours

Compound: C[C@H](NC(=O)[C@H](CCC(N)=O)NC(=O)C(C)(C)NC(=O)[C@H](C)NC(=O)C(C)(C)NC(=O)[C@H](CC(N)=O)NC(=O)[C@H](CCCNC(=N)N)NC(=O)[C@H](CCCNC(=N)N)NC(=O)[C@H](C)NC(=O)[C@H](CCC(N)=O)NC(=O)C(C)(C)NC(=O)[C@H](C)NC(=O)C(C)(C)NC(=O)[C@H](CC(N)=O)NC(=O)[C@H](CCCNC(=N)N)NC(=O)[C@H](CCCNC(=N)N)NC(=O)[C@H](C)NC(=O)[C@H](CCC(N)=O)NC(=O)C(C)(C)NC(=O)[C@H](C)NC(=O)C(C)(C)N)C(=O)N[C@@H](CCCNC(=N)N)C(=O)N[C@@H](CCCNC(=N)N)C(=O)N[C@@H](CC(N)=O)C(=O)NC(C)(C)C(=O)N[C@@H](C)C(=O)NC(C)(C)C(N)=O [CPP10] (HELM PEPTIDE1{[Aib].A.[Aib].Q.A.R.R.N.[Aib].A.[Aib].Q.A.R.R.N.[Aib].A.[Aib].Q.A.R.R.N.[Aib].A.[Aib].[am]}$$$$V2.0; N-terminus assumed)
- cell-penetrating ability compared with Tat ([1]; HeLa, 30 μM, FAM-labeled): significantly superior
- cell-penetrating ability compared with Tat [2]: significantly superior
- cell-penetrating ability compared with Tat [3]: significantly superior
- in-vivo targeting site [4, 12]: targeted the ear
- targeting efficiency IV versus IP ([4]; TAMRA-labeled, 10 mg/kg, 4 hours): higher targeting efficiency when administered by IV injection rather than by IP injection
- in-vivo fluorescence distribution ([4]; TAMRA-labeled, IV tail vein, 10 mg/kg or 1 mg/kg, 4 hours): bright fluorescence was observed in the ear
- cytotoxicity (WST-8) [5]: hardly show cytotoxicity
- secondary structure / helix stabilization by CD [6]: significantly higher than those of CPP8 and CPP9

Compound: C[C@H](NC(=O)[C@H](CCC(N)=O)NC(=O)C(C)(C)NC(=O)[C@H](C)NC(=O)C(C)(C)NC(=O)[C@H](CC(N)=O)NC(=O)[C@H](CCCNC(=N)N)NC(=O)[C@H](CCCNC(=N)N)NC(=O)[C@H](C)NC(=O)[C@H](CCC(N)=O)NC(=O)C(C)(C)NC(=O)[C@H](C)NC(=O)C(C)(C)NC(=O)[C@H](CC(N)=O)NC(=O)[C@H](CCCNC(=N)N)NC(=O)[C@H](CCCNC(=N)N)NC(=O)[C@H](C)NC(=O)[C@H](CCC(N)=O)NC(=O)C(C)(C)NC(=O)[C@H](C)NC(=O)C(C)(C)NC(=O)[C@H](CC(N)=O)NC(=O)[C@H](CCCNC(=N)N)NC(=O)[C@H](CCCNC(=N)N)NC(=O)[C@H](C)NC(=O)[C@H](CCC(N)=O)NC(=O)C(C)(C)NC(=O)[C@H](C)NC(=O)C(C)(C)N)C(=O)N[C@@H](CCCNC(=N)N)C(=O)N[C@@H](CCCNC(=N)N)C(=O)N[C@@H](CC(N)=O)C(=O)NC(C)(C)C(=O)N[C@@H](C)C(=O)NC(C)(C)C(N)=O [CPP11] (HELM PEPTIDE1{[Aib].A.[Aib].Q.A.R.R.N.[Aib].A.[Aib].Q.A.R.R.N.[Aib].A.[Aib].Q.A.R.R.N.[Aib].A.[Aib].Q.A.R.R.N.[Aib].A.[Aib].[am]}$$$$V2.0; N-terminus assumed)
- melting temperature (CD thermal unfolding) [7]: 39.4 °C
- cellular uptake efficiency relative to Tat ([1]; HeLa, 30 μM, 4 hours, FAM-labeled, MFI): ≥ 4 times
- MFI / uptake efficiency versus concentration ([1]; Hela cells, 4-500 μM): uptake efficiency increases gradually with the concentration
- cellular uptake efficiency relative to Tat ([2]; 4 hours, MFI): ≥ 4 times
- cellular uptake efficiency relative to Tat ([3]; 4 hours, MFI): ≥ 4 times
- cellular localization [8]: mainly located outside the nucleus
- accumulation efficiency in the ear ([4]; FAM-labeled, IV 5 mg/kg, 1 hour, compared with CPP14, 15 and 17): much higher accumulation efficiency in the ear
- bioaccumulation ([4]; FAM-labeled, IV 5 mg/kg, 4 hours, comparison with existing CPPs): accumulated in the ear tissue at a significantly high level
- in-vivo targeting site [4, 12]: targeted the ear
- time to accumulation in the ear ([9]; IV 10 mg/kg): ≤ 4 h
- excretion route ([9]; IV 10 mg/kg, 4 hours): excreted out of the body through the liver and kidneys
- accumulation in the head (outside and inside) ([9]; IV 10 mg/kg, 4 hours, versus PBS, 10 mg/kg): accumulated effectively in the facial area, especially in the ear, in large quantities; also recorded: accumulated deeply not only in the ear but also in the nose
- accumulation in heart, lung and spleen [9, 13]: not accumulated in the heart, lung and spleen tissues
- accumulation rate in the brain [9, 13]: very low
- main target organ [9, 13]: targets mainly the ear
- accumulation in the inner ear (cochlea) ([9]; separated cochlea, IV, versus PBS (w/o treatment)): significantly remarkable accumulation in the inner ear (cochlea)
- cytotoxicity (WST-8) [5]: hardly show cytotoxicity
- secondary structure / helix stabilization by CD [6]: perfect α-helical structure
- dependence of [θ]222/[θ]208 on concentration ([6]; 5-200 μM, 20° C.): not affected by concentration

Compound: UaUgarrnUaUqarrnUaUqarrnUaUqarrnUaU [CPP11d]
- in-vivo targeting site ([4]; mouse, in vivo, iv, 10 mg/kg): targeted the ear
- cytotoxicity (WST-8) [10]: hardly show cytotoxicity
- secondary structure / helix stabilization by CD [6]: perfect left-handed helical conformation

Compound: GGACCUGGUAUGGGCGCAGCGCAAGCUGACGGUACAGGCCAGGUCC (listed as RNA, chemistry not given here) [IIB RNA, stem-loop IIB region of HIV-1 RRE RNA]
- Tm (UV melting) [11]: 60.6 °C
